In patent publication US9783536B2, “Nitrogen-containing heterocyclic compound or salt thereof” (FUJIFILM Corporation, priority 2013, dated 2017):
Like-named read-outs stand apart in the source and are kept apart here.

Columns and labels:
Assay type in all cases: biochemical
[1] = target: T1, human PI3Kα protein (Homo sapiens, UniProt P42336); experiment: PI3Kα enzyme assay (ADP-Glo); details: read-out: PI3Kα enzyme inhibitory activity
T1 construct: purchased Carna Biosciences, Inc; host or cells: baculovirus expression system
T1 sequence (P42336 whole entry): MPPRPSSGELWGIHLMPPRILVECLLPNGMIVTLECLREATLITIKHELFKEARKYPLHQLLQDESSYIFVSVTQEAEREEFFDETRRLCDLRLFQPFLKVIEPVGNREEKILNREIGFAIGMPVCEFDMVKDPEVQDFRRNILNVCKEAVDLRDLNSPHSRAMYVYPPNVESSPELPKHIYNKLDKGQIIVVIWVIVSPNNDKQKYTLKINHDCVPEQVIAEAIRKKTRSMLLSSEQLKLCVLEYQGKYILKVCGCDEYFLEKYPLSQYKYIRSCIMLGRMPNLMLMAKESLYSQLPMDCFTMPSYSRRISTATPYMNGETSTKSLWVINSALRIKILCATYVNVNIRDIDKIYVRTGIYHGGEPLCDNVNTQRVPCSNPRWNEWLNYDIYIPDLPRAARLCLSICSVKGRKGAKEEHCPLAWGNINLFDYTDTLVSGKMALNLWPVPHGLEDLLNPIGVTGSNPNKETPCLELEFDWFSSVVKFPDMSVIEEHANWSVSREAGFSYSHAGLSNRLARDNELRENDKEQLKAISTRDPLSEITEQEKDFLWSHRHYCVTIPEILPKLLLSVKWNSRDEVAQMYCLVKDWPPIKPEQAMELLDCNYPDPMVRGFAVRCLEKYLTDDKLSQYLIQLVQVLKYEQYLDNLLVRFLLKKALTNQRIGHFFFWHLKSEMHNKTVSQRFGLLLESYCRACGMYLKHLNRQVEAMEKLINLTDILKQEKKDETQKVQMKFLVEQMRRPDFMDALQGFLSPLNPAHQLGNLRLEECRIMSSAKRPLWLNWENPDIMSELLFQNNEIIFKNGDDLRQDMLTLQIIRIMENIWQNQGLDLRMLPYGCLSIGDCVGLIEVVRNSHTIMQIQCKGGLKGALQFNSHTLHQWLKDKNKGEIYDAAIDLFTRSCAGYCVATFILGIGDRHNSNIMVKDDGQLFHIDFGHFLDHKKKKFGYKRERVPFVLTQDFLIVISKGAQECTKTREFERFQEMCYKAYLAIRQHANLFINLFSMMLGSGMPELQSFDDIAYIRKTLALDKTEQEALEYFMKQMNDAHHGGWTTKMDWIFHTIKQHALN
T1 sequence (P27986 whole entry partner): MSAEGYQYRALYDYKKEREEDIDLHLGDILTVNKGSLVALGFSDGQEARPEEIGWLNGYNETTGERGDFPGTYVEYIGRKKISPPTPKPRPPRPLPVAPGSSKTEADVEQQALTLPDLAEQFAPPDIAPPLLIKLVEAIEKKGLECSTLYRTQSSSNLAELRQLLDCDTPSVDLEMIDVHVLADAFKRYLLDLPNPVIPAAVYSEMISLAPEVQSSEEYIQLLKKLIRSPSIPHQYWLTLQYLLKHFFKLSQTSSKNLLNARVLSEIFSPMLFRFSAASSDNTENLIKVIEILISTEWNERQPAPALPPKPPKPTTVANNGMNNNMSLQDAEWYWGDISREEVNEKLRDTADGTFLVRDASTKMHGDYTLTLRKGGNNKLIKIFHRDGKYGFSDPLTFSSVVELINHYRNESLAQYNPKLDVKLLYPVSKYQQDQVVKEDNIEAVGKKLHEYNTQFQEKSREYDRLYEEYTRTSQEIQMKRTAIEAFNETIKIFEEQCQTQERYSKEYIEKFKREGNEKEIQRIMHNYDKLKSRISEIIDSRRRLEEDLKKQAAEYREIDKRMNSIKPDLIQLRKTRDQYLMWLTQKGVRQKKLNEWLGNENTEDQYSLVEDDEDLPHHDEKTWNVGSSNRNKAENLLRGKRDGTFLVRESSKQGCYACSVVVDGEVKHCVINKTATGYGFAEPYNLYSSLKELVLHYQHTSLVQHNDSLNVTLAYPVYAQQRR
Procedure, shortened: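 Biotinylated human PI3Kα (baculovirus-expressed, 4.5 nmol/L) pre-incubated 15 min with compound in Tris-HCl pH 7.5, MgCl2, BSA; reaction 60 min at 25° C with 50 μmol/L PIP2 and 100 μmol/L ATP final. ADP quantified by ADP-Glo luminescence; IC50 calculated.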

[2] = target: T2, GST fusion human ERK2 protein (Homo sapiens, UniProt P28482); experiment: ERK2 enzyme assay (1); details: read-out: ERK2 enzyme inhibitory activity (1)
T2 construct: purchased Carna Biosciences, Inc; host or cells: E. coli expression system
T2 sequence (P28482 whole entry, the tested form may be a part): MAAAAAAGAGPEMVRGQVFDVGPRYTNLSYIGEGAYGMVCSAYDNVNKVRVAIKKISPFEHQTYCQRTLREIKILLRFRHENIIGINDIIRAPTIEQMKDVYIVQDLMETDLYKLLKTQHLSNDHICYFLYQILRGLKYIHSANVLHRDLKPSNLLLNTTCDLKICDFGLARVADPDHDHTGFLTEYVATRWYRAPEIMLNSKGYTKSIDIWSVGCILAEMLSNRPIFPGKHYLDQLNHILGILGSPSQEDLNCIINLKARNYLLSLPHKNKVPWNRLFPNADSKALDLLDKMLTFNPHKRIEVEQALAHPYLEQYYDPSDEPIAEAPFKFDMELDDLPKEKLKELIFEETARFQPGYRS
Procedure, shortened: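 Enzyme (2.5 nmol/L, E. coli-expressed) preincubated with compound 15 min at room temperature in HEPES/MgCl2/DTT/Brij35 buffer, pH 7.5; reaction with 4.25 μmol/L FL-Peptide 8 and 43.1 μmol/L ATP for 120 min at 25 °C. Phosphorylated peptide fraction quantified by mobility-shift separation after EDTA stop; IC50 calculated.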

[3] = target: T2, GST fusion human ERK2 protein; experiment: ERK2 enzyme assay (2); details: read-out: ERK2 enzyme inhibitory activity (2)
Procedure, shortened: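 GST-tagged human ERK2 expressed in E. coli (1.25 nmol/L) was preincubated with compound for 15 min at room temperature in pH 7.5 Hepes buffer with MgCl2, DTT and Brij35. Reaction with FL-Peptide 8 (final 4.25 μmol/L) and ATP (final 1 mmol/L) ran 120 min at 25 °C; EDTA stopped it, and phosphorylated peptide was quantified by mobility-shift separation to derive IC50.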

[4] = 4.5 nmol/L PI3Kα, PIP2 50 μmol/L, ATP 100 μmol/L
[5] = 2.5 nmol/L ERK2, ATP 43.1 μmol/L

SMILES	IC50 [1]	IC50 ([2]; ERK2 enzyme assay (1))	IC50 ([3]; ERK2 enzyme assay (2))	IC50 [1, 4]	IC50 [2, 5]	IC50 ([3]; 1.25 nmol/L ERK2, ATP 1 mmol/L)
Cn1cc(-c2cnc3ccc(Nc4nncs4)nc3c2)cn1 [Example 0026, N-(7-(1-methyl-1H-pyrazol-4-yl)-1,5-naphthyridin-2-yl)-1,3,4-thiadiazole-2-amine]				< 1 µM	< 1 µM	< 1 µM
CCOc1nn(C)cc1-c1cnc2ccc(Nc3nnc(C(C)C)s3)nc2c1 [Example 0150]				< 1 µM	< 1 µM	1 to 10 µM
CC(C)c1cnnc(Nc2ccc3ncc(-c4ccnc(O)c4)cc3n2)c1 [Example 0589, 4-(6-((5-isopropylpyridazin-3-yl)amino)-1,5-naphthyridin-3-yl)pyridin-2-ol]	< 1 µM	< 1 µM	< 1 µM			
COCc1nn(C)cc1-c1cnc2ccc(Nc3nnc(C(C)C)s3)nc2c1 [Example 0142]				< 1 µM	< 1 µM	< 1 µM
FC1(F)CCN(CCCn2cc(-c3cnc4ccc(Nc5nnc(C6CCCC6)s5)nc4c3)cn2)CC1 [Example 0353]	< 1 µM	< 1 µM	< 1 µM			
Cc1c(-c2cnc3ccc(Nc4nnc(C(C)C)s4)nc3c2)cnn1CCCN1CCCC1 [Example 0360, 5-Isopropyl-N-(7-(5-methyl-1-(3-(pyrrolidin-1-yl)propyl)-1H-pyrazol-4-yl)-1,5-naphthyridin-2-yl)-1,3,4-thiadiazole-2-amine]	< 1 µM	< 1 µM	< 1 µM			
CCCc1nn(CCCN2CCCC2)cc1-c1cnc2ccc(Nc3nnc(C(C)C)s3)nc2c1 [Example 0147]				< 1 µM	< 1 µM	< 1 µM
F[C@@H]1CCN(CCCn2cc(-c3cnc4ccc(Nc5nnc(C6CCCC6)s5)nc4c3)cn2)C1 [Example 0351, (R)-5-cyclopentyl-N-(7-(1-(3-(3-fluoropyrrolidin-1-yl)propyl)-1H-pyrazol-4-yl)-1,5-naphthyridin-2-yl)-1,3,4-thiadiazole-2-amine]	< 1 µM	< 1 µM	< 1 µM			
COCCCn1cc(-c2cnc3ccc(Nc4cc(C(C)C)cnn4)nc3c2)cn1 [Example 0472]	< 1 µM	< 1 µM	< 1 µM			
c1nc2ccc(Nc3nnc(C4CCCCC4)s3)nc2cc1-c1cnn(CCCN2CCCC2)c1 [Example 0236]	< 1 µM	< 1 µM	< 1 µM			
CC(C)c1cnnc(Nc2ccc3ncc(-c4cnn(CCCN5CCN(C)CC5)c4)cc3n2)c1 [Example 0021, N-(5-isopropylpyridazin-3-yl)-7-(1-(3-(4-methylpiperazin-1-yl)propyl)-1H-pyrazol-4-yl)-1,5-naphthyridine-2-amine]				< 1 µM	< 1 µM	< 1 µM
c1nc2ccc(Nc3cc(C4CCCC4)cnn3)nc2cc1-c1cnn(CCCN2CCCC2)c1 [Example 0016]				< 1 µM	< 1 µM	< 1 µM
CC(C)(C)c1cnnc(Nc2ccc3ncc(-c4cnn(CCCN5CCCC5)c4)cc3n2)c1 [Example 0290]	< 1 µM	< 1 µM	< 1 µM			
c1nc2ccc(Nc3nnc(C4CCCC4)s3)nc2cc1-c1cnn(CCCN2CCCCC2)c1 [Example 0344, 5-cyclopentyl-N-(7-(1-(3-(piperidin-1-yl)propyl)-1H-pyrazol-4-yl)-1,5-naphthyridin-2-yl)-1,3,4-thiadiazole-2-amine]	< 1 µM	< 1 µM	< 1 µM			
CC(C)c1cnnc(Nc2ccc3ncc(-c4cnn(C5CCN(C)CC5)c4)cc3n2)c1 [Example 0370, N-(5-isopropylpyridazin-3-yl)-7-(1-(1-methylpiperidin-4-yl)-1H-pyrazol-4-yl)-1,5-naphthyridine-2-amine]	< 1 µM	< 1 µM	< 1 µM			
CC(C)c1cnnc(Nc2ccc3ncc(Nc4cncc(OCCN5CCOCC5)c4)cc3n2)c1 [Example 0159, N^2-(5-isopropylpyridazin-3-yl)-N^7-(5-(2-morpholinoethoxyl)pyridin-3-yl)-1,5-naphthyridine-2,7-diamine]				< 1 µM	< 1 µM	< 1 µM
c1nc2ccc(Nc3nnc(C4CCCC4)s3)nc2cc1-c1cnn(CCCN2CCNCC2)c1 [Example 0303, 5-cyclopentyl-N-(7-(1-(3-(piperazin-1-yl)propyl)-1H-pyrazol-4-yl)-1,5-naphthyridin-2-yl)-1,3,4-thiadiazole-2-amine]	< 1 µM	< 1 µM	< 1 µM			
CC(C)c1nnc(Nc2ccc3ncc(Nc4cncnc4)cc3n2)s1 [Example 0095]				< 1 µM	< 1 µM	1 to 10 µM
COCc1nn(C)cc1-c1cnc2ccc(Nc3cc(C(C)C)cnn3)nc2c1 [Example 0160]				< 1 µM	< 1 µM	< 1 µM

The next lines start with the values.

IC50 [1]	IC50 ([2]; ERK2 enzyme assay (1))	IC50 ([3]; ERK2 enzyme assay (2))	IC50 [1, 4]	IC50 [2, 5]	IC50 ([3]; 1.25 nmol/L ERK2, ATP 1 mmol/L)	SMILES
< 1 µM	< 1 µM	1 to 10 µM				c1cc(-c2ccnc3ccc(Nc4nnc(CC5CCCO5)s4)nc23)ccn1 (stereo not drawn) [Example 0276]
1 to 10 µM	< 1 µM	< 1 µM				Cn1cc(-c2cnc3ccc(Nc4nnc(C5CCCC5)s4)nc3c2Cl)cn1 [Example 0350, N-(8-chloro-7-(1-methyl-1H-pyrazol-4-yl)-1,5-naphthyridin-2-yl)-5-cyclopentyl-1,3,4-thiadiazole-2-amine]
< 1 µM	< 1 µM	< 1 µM				CCOc1c(-c2cnn(C)c2)cnc2ccc(Nc3nnc(C4CCCC4)s3)nc12 [Example 0358, 5-Cyclopentyl-N-(8-ethoxy-7-(1-methyl-1H-pyrazol-4-yl)-1,5-naphthyridin-2-yl)-1,3,4-thiadiazole-2-amine]
< 1 µM	< 1 µM	< 1 µM				CCCc1nnc(Nc2ccc3ncc(-c4cnn(CCCN5CCCC5)c4)cc3n2)s1 [Example 0364]
			< 1 µM	< 1 µM	< 1 µM	c1ncc(N2CCOCC2)cc1Nc1cnc2ccc(Nc3nnc(C4CCCC4)s3)nc2c1 [Example 0090]
			< 1 µM	< 1 µM	< 1 µM	CN(c1cccnc1)c1cnc2ccc(Nc3nnc(C4CCCC4)s3)nc2c1 [Example 0071]
			1 to 10 µM	< 1 µM	< 1 µM	COCc1nnc(Nc2ccc3ncc(-c4cnn(C)c4)cc3n2)s1 [Example 0170, 5-(Methoxymethyl)-N-(7-(1-methyl-1H-pyrazol-4-yl)-1,5-naphthyridin-2-yl)-1,3,4-thiadiazole-2-amine]
< 1 µM	< 1 µM	1 to 10 µM				CC(C)Oc1c(-c2cnn(C)c2)cnc2ccc(Nc3nnc(C4CCCC4)s3)nc12 [Example 0359, 5-cyclopentyl-N-(8-isopropyloxy-7-(1-methyl-1H-pyrazol-4-yl)-1,5-naphthyridin-2-yl)-1,3,4-thiadiazole-2-amine]
			< 1 µM	< 1 µM	< 1 µM	CC(C)c1nnc(Nc2ccc3ncc(-c4cn(C)nc4C4CC4)cc3n2)s1 [Example 0133]
			< 1 µM	< 1 µM	< 1 µM	c1ncc(OCCCN2CCOCC2)cc1Nc1cnc2ccc(Nc3nnc(C4CCCC4)s3)nc2c1 [Example 0084]
< 1 µM	< 1 µM	< 1 µM				OCCN1CCC(n2cc(-c3cnc4ccc(Nc5nnc(C6CCCC6)s5)nc4c3)cn2)CC1 [Example 0336, 2-(4-(4-(6-((5-cyclopentyl-1,3,4-thiadiazol-2-yl)amino)-1,5-naphthyridin-3-yl)-1H-pyrazol-1-yl)piperidin-1-yl)ethanol]
< 1 µM	< 1 µM	< 1 µM				CCOC(=O)Cc1nnc(Nc2ccc3ncc(-c4cnn(CCCN5CCCC5)c4)cc3n2)s1 [Example 0242, ethyl (5-((7-(1-(3-(pyrrolidin-1-yl)propyl)-1H-pyrazol-4-yl)-1,5-naphthyridin-2-yl)amino)-1,3,4-thiadiazol-2-yl)acetate]
			< 1 µM	< 1 µM	1 to 10 µM	CC(C)c1nnc(Nc2ccc3ncc(-c4cn(C)nc4-c4ccncc4)cc3n2)s1 [Example 0135]
< 1 µM	< 1 µM	< 1 µM				c1nc2ccc(Nc3nnc(C4CCCC4)s3)nc2cc1-c1cnn(CCCN2CCC2)c1 [Example 0345]
< 1 µM	< 1 µM	< 1 µM				c1cncc(Cc2nnc(Nc3ccc4ncc(-c5cnn(CCCN6CCCC6)c5)cc4n3)s2)c1 [Example 0262]
1 to 10 µM	< 1 µM	< 1 µM				Cn1cc(-c2cnc3ccc(Nc4nnc(CS(C)(=O)=O)s4)nc3c2)cn1 [Example 0257, N-(7-(1-methyl-1H-pyrazol-4-yl)-1,5-naphthyridin-2-yl)-5-((methylsulfonyl)methyl)-1,3,4-thiadiazole-2-amine]
